Data as given in ChEMBL document CHEMBL1201862, “PubChem BioAssay data set” (2004).
Values joined by “and” are separate entries in the source; they are usually repeats but may differ in a detail not shown here. Identical values can stand only once.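 Exposure lasted 48 hours, with cells grown in 96-well plates and compounds tested at five concentrations. GI50: concentration for 50% inhibition of growth.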 Active and inactive are the calls of the source. No stated cut-off is given here; in the data, active = GI50 up to about 1.1 µM and inactive = higher.

Assays:
Test in all cases: NCI tumour cell line growth inhibition, 48 h
[1] = system: NCI-H226
[2] = system: A498
[3] = system: ACHN
[4] = system: SF-539
[5] = system: U-251
[6] = system: UO-31
[7] = system: UACC-62
[8] = system: TK-10
[9] = system: IGROV-1
[10] = system: Hs-578T
[11] = system: HCC 2998
[12] = system: SK-MEL-2
[13] = system: HCT-116
[14] = system: SF-268
[15] = system: Malme-3M
[16] = system: SK-MEL-5
[17] = system: RXF 393
[18] = system: 786-0
[19] = system: SN12C

Structure (SMILES)	GI50 [1]	GI50 [2]	GI50 [3]	GI50 [4]	GI50 [5]	GI50 [6]	GI50 [7]	GI50 [8]	GI50 [9]	GI50 [10]	GI50 [11]	GI50 [12]	GI50 [13]	GI50 [14]	GI50 [15]	GI50 [16]	GI50 [17]	GI50 [18]	GI50 [19]
Cc1ccc(-c2c(-c3ccccc3)[nH]c(C)c2C(=O)ONC(=O)c2ccccc2)cc1	7.24 µM (inactive)	12.7 µM (inactive)	1.91 µM (inactive)	2.97 µM (inactive)	1.84 µM (inactive)	0.303 µM (active)	10.2 µM (inactive)	5.52 µM (inactive)	1.46 µM (inactive)	2.01 µM (inactive)	15.5 µM (inactive)	3.7 µM (inactive)	2.48 µM (inactive)	2.36 µM (inactive)	11.4 µM (inactive)	6.41 µM (inactive)	1.87 µM (inactive)	3.03 µM (inactive)	2.53 µM (inactive)
c1ccc2sc(C3(N4CCC5(CC4)OCCO5)CCCCC3)cc2c1	18.6 µM (inactive)	> 100 µM (inactive)	> 100 µM (inactive)	> 100 µM (inactive)		> 100 µM (inactive)	> 100 µM (inactive)	90.6 µM (inactive)	> 100 µM (inactive)	> 100 µM (inactive)	27.7 µM (inactive)		58.1 µM (inactive)	> 100 µM (inactive)	> 100 µM (inactive)	50.5 µM (inactive)	> 100 µM (inactive)	99.1 µM (inactive)	88.3 µM (inactive)
O=[N+]([O-])c1ccc(-c2nc3ccccc3o2)cc1	> 100 µM (inactive)	> 100 µM (inactive)	> 100 µM (inactive)	> 100 µM (inactive)	> 100 µM (inactive)	> 100 µM (inactive)	> 100 µM (inactive)	> 100 µM (inactive)	> 100 µM (inactive)	> 100 µM (inactive)	> 100 µM (inactive)	> 100 µM (inactive)	> 100 µM (inactive)	> 100 µM (inactive)	> 100 µM (inactive)	> 100 µM (inactive)	> 100 µM (inactive)	> 100 µM (inactive)	> 100 µM (inactive)
C#CCCCOc1ncccn1	> 100 µM (inactive)	> 100 µM (inactive)	> 100 µM (inactive)	> 100 µM (inactive)	> 100 µM (inactive)	> 100 µM (inactive)	> 100 µM (inactive)	> 100 µM (inactive)	> 100 µM (inactive)	> 100 µM (inactive)	> 100 µM (inactive)	> 100 µM (inactive)	> 100 µM (inactive)	> 100 µM (inactive)	> 100 µM (inactive)	> 100 µM (inactive)	> 100 µM (inactive)	> 100 µM (inactive)	> 100 µM (inactive)
C[C@H]1O[C@@H](O[C@H]2[C@@H](O)C[C@H](O[C@H]3[C@@H](O)C[C@H](O[C@H]4CC[C@@]5(C)[C@H](CC[C@@H]6[C@@H]5CC[C@]5(C)[C@@H](C7=CC(=O)OC7)[C@@H](O)C[C@]65O)C4)O[C@@H]3C)O[C@@H]2C)C[C@H](O)[C@@H]1O [GITOXIN]	0.855 µM (active)	0.237 µM (active)	0.0948 µM (active)	0.1 µM (active)	0.258 µM (active)	0.219 µM (active)	0.418 µM (active)	0.254 µM (active)	0.416 µM (active)	0.562 µM (active)	4.19 µM (inactive)	0.543 µM (active)	0.127 µM (active)	0.152 µM (active)	0.206 µM (active)	0.118 µM (active)	0.0991 µM (active)	0.151 µM (active)	0.164 µM (active)
O=C1N/C(=N/N=C\C(O)C(O)C(O)C(O)CO)N/C1=C/c1ccc(Cl)cc1 (centres undefined)	74.8 µM (inactive)	> 100 µM (inactive)	> 100 µM (inactive)	> 100 µM (inactive)	> 100 µM (inactive)	> 100 µM (inactive)		> 100 µM (inactive)	> 100 µM (inactive)	> 100 µM (inactive)	95.7 µM (inactive) and 99.3 µM (inactive)	> 100 µM (inactive)	> 100 µM (inactive)	> 100 µM (inactive) and 98.2 µM (inactive)	97.3 µM (inactive)	> 100 µM (inactive)	> 100 µM (inactive)	> 100 µM (inactive)	> 100 µM (inactive)
Cc1cc2c(cc1Cl)SSc1cc(Cl)c(C)cc1S(=O)(=O)Nc1nc(N)nn1C(O)n1nc(N)nc1NS2(=O)=O	> 10 µM (inactive)	> 10 µM (inactive)	> 10 µM (inactive)	> 10 µM (inactive)	> 10 µM (inactive)	> 10 µM (inactive)		> 10 µM (inactive)	> 10 µM (inactive)	> 10 µM (inactive)	> 10 µM (inactive)	> 10 µM (inactive)	> 10 µM (inactive)	> 10 µM (inactive)	> 10 µM (inactive)	> 10 µM (inactive)	> 10 µM (inactive)	> 10 µM (inactive)	> 10 µM (inactive)
